Measurements published in US7880007B2, “Bicyclic substituted phenyl piperidine modulators of muscarinic receptors” (Vertex Pharmaceuticals Incorporated, priority 2004, dated 2011).

Experiments:
Format in all cases: cell-based
[1] = target: T1, M2 muscarinic receptor (Homo sapiens, UniProt P08172); test: Functional mobilization of intracellular calcium (FLIPR), M2-CHO cells; conditions: for M2 Activity: M2-CHO cells, calcium mobilization (FLIPR)
T1 construct: expressed in transfected cells; host or cells: CHO (M2-CHO)
T1 sequence (P08172 1-466): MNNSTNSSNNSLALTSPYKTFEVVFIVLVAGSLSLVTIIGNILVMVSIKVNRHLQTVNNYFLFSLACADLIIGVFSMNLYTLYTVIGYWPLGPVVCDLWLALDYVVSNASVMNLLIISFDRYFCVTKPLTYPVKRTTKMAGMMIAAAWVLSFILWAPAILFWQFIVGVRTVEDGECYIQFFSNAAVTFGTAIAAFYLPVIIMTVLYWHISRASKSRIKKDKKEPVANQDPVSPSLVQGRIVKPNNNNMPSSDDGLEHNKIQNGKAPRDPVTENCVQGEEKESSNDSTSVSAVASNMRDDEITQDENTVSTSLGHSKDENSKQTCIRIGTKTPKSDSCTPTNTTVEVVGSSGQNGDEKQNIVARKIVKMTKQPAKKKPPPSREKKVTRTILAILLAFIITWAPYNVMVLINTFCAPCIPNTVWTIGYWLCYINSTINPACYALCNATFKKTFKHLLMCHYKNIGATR
How it was run: (§1)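 CHO cells expressing human M1–M4 receptors loaded with Fluo-3 AM or Calcium 3 dye (1 mM probenecid, pH 7.4); 0.5% DMSO final. Agonist mode: compound added directly; antagonist mode: 15 min pre-incubation or co-application, then carbachol at EC80. Fluorescence read 60 s on FLIPR; efficacy relative to carbachol maximum.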

[2] = target: T2, M4 muscarinic receptor (Homo sapiens, UniProt P08173); test: Functional mobilization of intracellular calcium (FLIPR), M4-CHO cells; conditions: for M4 Activity: M4-CHO cells, calcium mobilization (FLIPR)
T2 construct: expressed in transfected cells; host or cells: CHO (M4-CHO)
T2 sequence (P08173 1-479): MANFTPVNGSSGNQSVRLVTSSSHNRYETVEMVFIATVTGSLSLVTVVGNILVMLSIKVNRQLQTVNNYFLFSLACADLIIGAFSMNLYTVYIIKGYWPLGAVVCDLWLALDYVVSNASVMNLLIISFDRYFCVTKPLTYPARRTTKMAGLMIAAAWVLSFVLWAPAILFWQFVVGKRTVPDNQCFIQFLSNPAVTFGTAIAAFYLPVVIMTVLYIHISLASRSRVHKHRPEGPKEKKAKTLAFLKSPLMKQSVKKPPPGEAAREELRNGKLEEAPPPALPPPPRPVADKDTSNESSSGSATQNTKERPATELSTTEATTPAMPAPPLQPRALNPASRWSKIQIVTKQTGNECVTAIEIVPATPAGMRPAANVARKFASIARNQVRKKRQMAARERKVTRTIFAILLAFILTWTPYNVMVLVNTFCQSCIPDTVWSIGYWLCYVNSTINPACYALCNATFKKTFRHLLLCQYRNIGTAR
How it was run: as §1

[3] = target: T3, M1 muscarinic receptor (Homo sapiens, UniProt P11229); test: Functional mobilization of intracellular calcium (FLIPR), M1-CHO cells; conditions: for M1 Activity: M1-CHO cells, calcium mobilization (FLIPR)
T3 construct: expressed in transfected cells; host or cells: CHO (M1-CHO)
T3 sequence (P11229 1-460): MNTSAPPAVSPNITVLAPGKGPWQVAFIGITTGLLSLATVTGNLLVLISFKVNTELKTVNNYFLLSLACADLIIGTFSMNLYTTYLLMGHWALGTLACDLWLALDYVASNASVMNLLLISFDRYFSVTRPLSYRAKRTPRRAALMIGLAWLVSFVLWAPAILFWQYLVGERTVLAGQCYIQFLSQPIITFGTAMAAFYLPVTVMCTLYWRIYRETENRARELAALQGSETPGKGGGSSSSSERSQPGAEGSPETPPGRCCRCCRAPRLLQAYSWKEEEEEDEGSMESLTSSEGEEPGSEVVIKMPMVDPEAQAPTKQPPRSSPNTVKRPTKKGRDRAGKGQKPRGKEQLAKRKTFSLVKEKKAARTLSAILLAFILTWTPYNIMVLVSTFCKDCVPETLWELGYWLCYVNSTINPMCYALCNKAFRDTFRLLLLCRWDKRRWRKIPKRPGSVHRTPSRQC
How it was run: as §1

[4] = target: T4, M3 muscarinic receptor (Homo sapiens, UniProt P20309); test: Functional mobilization of intracellular calcium (FLIPR), M3-CHO cells
T4 construct: expressed in transfected cells; host or cells: CHO (M3-CHO)
T4 sequence (P20309 whole entry): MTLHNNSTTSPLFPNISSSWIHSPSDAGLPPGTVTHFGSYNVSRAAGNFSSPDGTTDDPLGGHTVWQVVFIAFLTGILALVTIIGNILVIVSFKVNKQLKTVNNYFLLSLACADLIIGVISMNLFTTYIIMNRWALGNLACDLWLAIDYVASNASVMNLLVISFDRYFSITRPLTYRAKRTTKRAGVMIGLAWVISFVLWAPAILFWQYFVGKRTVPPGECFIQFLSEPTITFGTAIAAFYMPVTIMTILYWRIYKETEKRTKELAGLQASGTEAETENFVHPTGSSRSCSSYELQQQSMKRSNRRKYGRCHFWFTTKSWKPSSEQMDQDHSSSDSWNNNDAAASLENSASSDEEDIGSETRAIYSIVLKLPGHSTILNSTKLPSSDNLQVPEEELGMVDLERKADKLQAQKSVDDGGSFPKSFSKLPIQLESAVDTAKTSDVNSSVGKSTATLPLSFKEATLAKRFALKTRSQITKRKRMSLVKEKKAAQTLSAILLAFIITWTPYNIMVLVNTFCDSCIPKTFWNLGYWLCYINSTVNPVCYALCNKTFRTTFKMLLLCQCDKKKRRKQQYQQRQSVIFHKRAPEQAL
Protocol: Functional Mobilization of Intracellular Calcium to Determine Muscarinic Receptor Activity:
CHO cells expressing muscarinic receptors (M1 to M5) are grown as monolayers in tissue culture flasks at 37° C. in a humidified atmosphere containing 5% CO2 and passaged every 3-5 days. The growth media is Dulbecco's modified eagles medium (DMEM, Gibco Cat #12430-054), containing 25 mM Hepes and supplemented with Fetal Bovine Serum (Hyclone, cat #SH30071.03), 0.1 mM of MEM non-essential amino acids (GIBCO, Cat #11140-050), 1 mM MEM Sodium Pyruvate (GIBCO Cat #11360-070) and 100 units/ml of Penicillin G and 100 μg/ml of Streptomycin (GIBCO Cat #15140-122). The recombinant muscarinic receptor cell lines are grown under antibiotic pressure with media containing 25 μg/ml zeocin and 500 μg/ml G418 (M1-CHO), 4 μg/ml puromycin, 50 μg/ml zeocin and 2.5 μg/ml blasticidin (M2 and M4-CHO) or 50 μg/ml zeocin and 4 μg/ml puromycin (M3 and M5-CHO).
Cells are harvested at 80-90% confluence using Versene (GIBCO Cat #15040-066), collected by centrifugation and seeded 18-24 hrs prior to running the calcium assay at a density of 5,000-10,000 cells/well in […], clear-bottomed 384-well plates (BD Biocoat, poly-D-lysine, Cat #356663). The day of the experiment, the cells are washed with a plate washer (Bioteck Instruments, ELX 405) using bath 1 buffer (140-mM NaCl, 4.5-mM KCl, 2-mM CaCl2, 1-mM MgCl2, 10-mM Hepes-Na, 10-mM Glucose, pH 7.4, with NaOH) containing 1 mM Probenecid. Next, the calcium dye Fluo-3 (25 μl/well of Fluo-3 AM at 4 μM, Molecular Probes F-1241, in Bath 1 buffer containing 1 mM Probenecid) is added to the 25 μl of Bath 1 remaining in each well after the plate wash and the dye is loaded at 37° C. in the tissue culture incubator for 60-90 min. The fluorescent dye is removed using the plate washer with Bath 1 containing 1 mM Probenecid, leaving 25 μl/well of this solution after the wash. Alternatively, cells can be loaded with the calcium indicator from Molecular Devices (Calcium 3 Assay Reagents, Cat #R7181) adding 5 μl of a 5× solution dye in Bath 1 containing 1 mM Probenecid (10 ml per dye flask cat #R7182 to generate a solution 20×) to 20 μl of the same buffer. After loading for 60 min, the experiment can be run without having to remove the dye.
Compounds are prepared at a 2× fold concentration in a 96-well plate (round bottom, Costar Corning cat #3656), by reconstituting the pre-spotted compounds in bath 1 containing 1 mM probenecid. The final concentration DMSO is 0.5%, and the amount of DMSO is normalized across the assay plate. To determine an agonist action of the compounds on muscarinic receptors, the reconstituted compounds are added (25 μl compound/well) to the cell assay plate (containing 25 μl/well) using the multi-channel robotic system of the FLIPR 3 Instrument (Molecular Devices, Sunnyvale, Calif.). To determine a functional inhibitory action of the compounds on muscarinic receptors, the reconstituted compounds are added (25 μl compound/well) to the assay plate and pre-incubated for 15 min prior to adding 25 μl of Carbachol at 3× the EC80 for each muscarinic subtype. Alternatively, the compounds can be co-applied simultaneously with the agonist. In both assay modes, the fluorescence is recorded for 60 sec (excitation wavelength is […] and emission wavelength 540 nm) using the FLIPR 3 instrument.
The potency, efficacy and selectivity of the muscarinic compounds were evaluated by screening the compound activity across the whole family (M1 to M5 cells). Compounds were also screened for activity on other proteins such as other GPCRs and ion channels to determine selectivity on M4 receptors.
Examples of activities and efficacies of the muscarinic compounds of formulae (I, Ia, Ib, and II) on modulating M1, M2, M3 and M4 receptors are shown below in Table 3. […]

[5] = 100% efficacy = maximum response obtained with the Carbachol control
[6] = 100% efficacy is the maximum response obtained with the Carbachol control

Row | SMILES | Emax [1, 5] [%] | M2 Activity [1] | Emax [2, 5] [%] | M4 Activity [2] | Emax [3, 5] [%] | M1 Activity [3] | Emax [4, 5] [%] | M3 Activity ([4]; M3-CHO cells, calcium mobilization (FLIPR)) | Emax [1, 6] [%] | Emax [2, 6] [%] | Emax [3, 6] [%]
1 | Fc1ccccc1-c1ccccc1C1CCN(C2CC3CC[C@H]2C3)CC1 (stereo in doubt) [Compound 10, 1-((1S,2R,4R)-bicyclo[2.2.1]heptan-2-yl)-4-(2′-fluorobiphenyl-2-yl)piperidine] | 25 to 100 | + (activity was measured to be greater than 5.0 μM) | 25 to 100 | ++ (activity was measured to be from 1.0 μM to 5.0 μM) | < 25 | + (activity was measured to be greater than 5.0 μM) | < 25 | + (activity was measured to be greater than 5.0 μM) | – | – | –
2 | COc1ccc(Cl)cc1C1(O)CCN(C[C@@H]2C[C@H]3C=C[C@H]2C3)CC1 [Compound 319] | < 25 | + (activity was measured to be greater than 5.0 μM) | 25 to 100 | ++ (activity was measured to be from 1.0 μM to 5.0 μM) | < 25 | + (activity was measured to be greater than 5.0 μM) | – | – | – | – | –
3 | CCCC1CCC(N2CCC(C#N)(c3ccccc3OC)CC2)CC1 (centres unmarked) [Compound 335] | < 25 | + (activity was measured to be greater than 5.0 μM) | 25 to 100 | ++ (activity was measured to be from 1.0 μM to 5.0 μM) | 25 to 100 | ++ (activity was measured to be from 1.0 μM to 5.0 μM) | – | – | – | – | –
4 | CCOC(=O)N1[C@@H]2CC[C@@H]1CC(N1CCC(c3cc(NC(C)=O)ccc3OC)CC1)C2 (some centres unmarked) [Compound 338] | < 25 | – | 25 to 100 | – | 25 to 100 | – | – | – | – | – | –
5 | COc1ccc(OC)c(C2CCN(CC3C[C@H]4CC[C@H]3C4)CC2)c1 (some centres unmarked) [Compound 344] | < 25 | + (activity was measured to be greater than 5.0 μM) | 25 to 100 | ++ (activity was measured to be from 1.0 μM to 5.0 μM) | < 25 | + (activity was measured to be greater than 5.0 μM) | – | – | – | – | –
6 | COc1ccccc1C1(C#N)CCN(C2CCCCC2)CC1 [Compound 348] | < 25 | + (activity was measured to be greater than 5.0 μM) | 25 to 100 | ++ (activity was measured to be from 1.0 μM to 5.0 μM) | 25 to 100 | + (activity was measured to be greater than 5.0 μM) | – | – | – | – | –
7 | COc1ccccc1C1(C#N)CCN(C[C@@H]2C[C@H]3C=C[C@H]2C3)CC1 [Compound 359] | 25 to 100 | ++ (activity was measured to be from 1.0 μM to 5.0 μM) | 25 to 100 | +++ (activity was measured to be less than 1.0 μM) | 25 to 100 | ++ (activity was measured to be from 1.0 μM to 5.0 μM) | – | – | – | – | –
8 | COc1ccccc1C1(C#N)CCN(C2CCOCC2)CC1 [Compound 379] | – | + (activity was measured to be greater than 5.0 μM) | – | + (activity was measured to be greater than 5.0 μM) | – | + (activity was measured to be greater than 5.0 μM) | – | – | < 25 | < 25 | < 25
9 | COc1ccc(Cl)cc1C1(O)CCN(C2CCCCCC2)CC1 [Compound 380] | – | + (activity was measured to be greater than 5.0 μM) | – | ++ (activity was measured to be from 1.0 μM to 5.0 μM) | – | + (activity was measured to be greater than 5.0 μM) | – | – | < 25 | 25 to 100 | < 25
10 | Cc1ccc(F)cc1C1CCN(C2C[C@H]3CC[C@H](C2)C3)CC1 (some centres unmarked) [Compound 385] | – | + (activity was measured to be greater than 5.0 μM) | – | +++ (activity was measured to be less than 1.0 μM) | – | ++ (activity was measured to be from 1.0 μM to 5.0 μM) | – | – | < 25 | 25 to 100 | 25 to 100
11 | COc1ccc(F)cc1C1CCN(C2CCC3CCC2C3)CC1 (centres unmarked) [Compound 412] | – | ++ (activity was measured to be from 1.0 μM to 5.0 μM) | – | +++ (activity was measured to be less than 1.0 μM) | – | +++ (activity was measured to be less than 1.0 μM) | – | – | < 25 | 25 to 100 | 25 to 100
12 | COc1ccccc1C1(C#N)CCN(C2CC3CCC(C3)C2)CC1 (centres unmarked) [Compound 421] | – | ++ (activity was measured to be from 1.0 μM to 5.0 μM) | – | +++ (activity was measured to be less than 1.0 μM) | – | ++ (activity was measured to be from 1.0 μM to 5.0 μM) | – | – | < 25 | 25 to 100 | 25 to 100
